Source: patent publication US7989446B2, “4-amino 5-cyanopyrimidine derivatives” (Otsuka Pharmaceutical Co., Ltd., priority 2004, dated 2011)

Columns and labels:
[1] = biological target: T1, adenosine A2a receptor (Human) (Homo sapiens, UniProt P29274); test: c-AMP generating action in cell expressing adenosine A2a receptor; format: cell-based; details: HEK293 cell expressing human A2a; 100% = c-AMP caused by 1 μM CGS-21680; read-out: A2a Agonistic Action (EC50)
T1 construct: host or cells: HEK293
How it was run: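 HEK293 cells with human A2a receptor were preincubated 30 min at 37 °C with 0.1 mM IBMX and 2 U/mL adenosine deaminase. Compound was then added for 30 min and cAMP read by EIA. EC50 = concentration giving 50% of the cAMP produced by 1 μM CGS-21680.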

A1 receptor = biological target: T2, A1 receptor (Rattus norvegicus, UniProt P25099); test: Adenosine A1 agonistic action ([35S]GTPγS binding, rat cerebral cortex cell membrane); format: biochemical, male Wistar rats; details: percentage to 100% of CPA 1 μM
T2 construct: cerebral cortex of male Wistar rats (Charles River Japan, Inc) was extirpated; from tissue; host or cells: cerebral cortex of male Wistar rats, cell membrane preparation
T2 sequence (P25099 1-326): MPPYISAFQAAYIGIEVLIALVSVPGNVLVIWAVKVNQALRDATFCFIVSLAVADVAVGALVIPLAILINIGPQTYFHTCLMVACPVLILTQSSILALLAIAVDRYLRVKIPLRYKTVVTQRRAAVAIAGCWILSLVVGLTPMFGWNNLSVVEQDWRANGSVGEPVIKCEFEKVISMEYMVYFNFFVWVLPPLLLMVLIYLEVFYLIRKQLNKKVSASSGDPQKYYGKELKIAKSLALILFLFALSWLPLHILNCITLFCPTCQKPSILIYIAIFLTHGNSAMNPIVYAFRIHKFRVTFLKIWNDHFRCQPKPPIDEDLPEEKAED
Protocol: (2) Adenosine A1 Agonistic Action
The test was carried out as mentioned below with reference to the method disclosed in the literature (Shryock J. C. et al., Molecular Pharmacology, (1998) 53, 886-893; Ito H. et al., European Journal of Pharmacology, (1999) 365, 309-315). That is, cerebral cortex of male Wistar rats (Charles River Japan, Inc) was extirpated, thereto Tris buffer (50 mM Tris-HCl: pH 7.4) was added, it was homogenized, and then centrifuged (1000×g, 10 min). The supernatant was taken, and centrifuged (20,000×g, 20 min). After removing off the supernatant, the precipitate was suspended in Tris buffer, and recentrifuged (20,000×g, 20 min). After removing off the supernatant, the precipitate was suspended in Tris buffer including 2 units/mL ADA (adenosine deaminase) and reserved at −80° C. until used as a liquid preparation of cell membrane for the following tests.
The above liquid preparation of cell membrane in an amount corresponding to 10 μg of cell membrane was added to Tris-buffer comprising 5 mM of MgCl2, 1 mM of EDTA, 1 mM of dithiothreitol, 100 mM of NaCl, 0.01 mM of GDP (guanosine diphosphate), 5 mg/mL of BSA and 2 units/mL of ADA and the mixture was incubated at 25° C. for 30 minutes. Additionally, [^35S]GTPγS (Guanosine 5′-[γ-thio]triphosphate) (the final concentration: 0.4 nM) and the test compound of the given concentration (which was calculated based on the final concentration of the test compound) were added to the mixture and the resulting mixture was incubated at 25° C. for 45 minutes. The reaction mixture was filtrated through a glass fiber filter (unifilter-96 GF/B, Perkin Elmer Life Sciences) to quench reaction. The filter was washed 5 times with ice-cooled Tris-buffer including 5 mM MgCl2. The radioactivity of the filter was measured with Top count NXT(Perkin Elmer Life Sciences). The nonspecific binding was shown as the binding activity of [^35S]GTPγS in the presence of 0.01 mM GTPγS.
The activity (%, A1 agonistic action) of each test compound was calculated on the basis of the test result ([^35S]GTPγS binding activity) derived with 1 μM of CPA (N^6-Cyclopentyladenosine, Sigma, code C-8031) in control which was counted as 100%.

[2] = system: Intraocular Pressure in Rabbit; test: Measuring test for intraocular pressure in rabbit; format: in vivo, Female New Zealand white rabbits; details: mean±standard error
How it was run: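 Female New Zealand white rabbits received 50 μL eye drops of compound in 10 mM phosphate buffer pH 7.5 (suspension if insoluble) in one eye, vehicle as control. IOP measured by pneumatonometer under topical oxybuprocaine before and 0.5–6 h after dosing; reported as ΔIOP from pre-instillation, mmHg, mean±SE.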

[3] = 0.01% ophthalmic solution, test group, 0.5 hr
[4] = 0.01% ophthalmic solution, test group, 1 hr
[5] = 0.01% ophthalmic solution, test group, 2 hr
[6] = 0.01% ophthalmic solution, test group, 3 hr
[7] = 0.01% ophthalmic solution, test group, 4 hr
[8] = 0.01% ophthalmic solution, test group, 6 hr
[9] = 0.03% ophthalmic solution, rabbit, instillation, 0.5 hr after instillation, difference from pre-instillation
[10] = 0.03% ophthalmic solution, rabbit, instillation, 1 hr after instillation, difference from pre-instillation
[11] = 0.03% ophthalmic solution, rabbit, instillation, 2 hr after instillation, difference from pre-instillation
[12] = 0.03% ophthalmic solution, rabbit, instillation, 3 hr after instillation, difference from pre-instillation
[13] = 0.03% ophthalmic solution, rabbit, instillation, 4 hr after instillation, difference from pre-instillation
[14] = 0.03% ophthalmic solution, rabbit, instillation, 6 hr after instillation, difference from pre-instillation

T1 sequence (P29274 whole entry): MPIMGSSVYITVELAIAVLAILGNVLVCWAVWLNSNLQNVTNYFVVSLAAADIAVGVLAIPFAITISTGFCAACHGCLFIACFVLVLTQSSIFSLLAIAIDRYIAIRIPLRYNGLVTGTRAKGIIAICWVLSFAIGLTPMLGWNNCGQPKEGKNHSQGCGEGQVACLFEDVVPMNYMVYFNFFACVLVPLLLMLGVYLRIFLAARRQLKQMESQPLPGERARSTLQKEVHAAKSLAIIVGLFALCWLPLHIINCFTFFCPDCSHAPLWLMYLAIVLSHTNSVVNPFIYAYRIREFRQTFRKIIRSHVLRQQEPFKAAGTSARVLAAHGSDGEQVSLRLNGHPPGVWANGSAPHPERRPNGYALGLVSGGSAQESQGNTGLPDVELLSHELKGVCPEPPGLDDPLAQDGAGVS

SMILES	EC50 [1]	A1 Agonistic Action (%) (A1 receptor; test compound 10 nM)	A1 Agonistic Action (%) (A1 receptor; test compound 100 nM)	A1 Agonistic Action (%) (A1 receptor; test compound 1 μM)	ΔIOP (mmHg) [2, 9]	ΔIOP (mmHg) [2, 10]	ΔIOP (mmHg) [2, 11]	ΔIOP (mmHg) [2, 12]	ΔIOP (mmHg) [2, 13]	ΔIOP (mmHg) [2, 14]	also measured
N#Cc1c(N)nc(SCc2csc(-c3ccc(Cl)cc3)n2)c(C#N)c1-c1ccc(OCCO)cc1 [Comparative Compound A, reference compound]	> 1000 nM	14%	55%	79%	–	–	–	–	–	–	–
CC(=O)Nc1ccc(-c2c(C#N)c(N)nc(SCc3ccccn3)c2C#N)cc1 [Comparative Compound B, reference compound]	14.3 nM	20%	63%	77%	–	–	–	–	–	–	–
CC(=O)Nc1ccc(-c2nc(SCc3cccc(CCC(=O)N4CCN(C)CC4)n3)nc(N)c2C#N)cc1 [Example 46, N-[4-(6-amino-5-cyano-2-{6-[3-(4-methylpiperazin-1-yl)-3-oxopropyl]pyridin-2-ylmethylsulfanyl}pyrimidin-4-yl)phenyl]-acetamide]	7.4 nM	4%	26%	45%	–	–	–	–	–	–	ΔIOP (mmHg) [2, 3]: −0.6 ± 0.6 mmHg; ΔIOP (mmHg) [2, 4]: −4.4 ± 0.8 mmHg; ΔIOP (mmHg) [2, 5]: −4.9 ± 0.6 mmHg; ΔIOP (mmHg) [2, 6]: −3.8 ± 0.7 mmHg; ΔIOP (mmHg) [2, 7]: −2.9 ± 0.5 mmHg; ΔIOP (mmHg) [2, 8]: −0.5 ± 0.6 mmHg
CC(=O)Nc1ccc(-c2nc(SCc3cccc(CCC(=O)N(C)CCN(C)C)n3)nc(N)c2C#N)cc1.Cl [Example 62, 3-{6-[4-(4-acetylaminophenyl)-6-amino-5-cyanopyrimidin-2-ylsulfanylmethyl]pyridin-2-yl}-N-(2-dimethylaminoethyl)-N-methylpropionamide hydrochloride]	5.1 nM	8%	30%	39%	−1.2 ± 0.7 mmHg	−4.7 ± 0.5 mmHg	−5.1 ± 0.3 mmHg	−4.9 ± 0.3 mmHg	−3.6 ± 0.3 mmHg	−1.0 ± 0.6 mmHg	–
CCN(CC)CCN1CCN(C(=O)CCc2cccc(CSc3nc(N)c(C#N)c(-c4ccc(NC(C)=O)cc4)n3)n2)CC1.Cl [Example 75, N-{4-[6-amino-5-cyano-2-(6-{3-[4-(2-diethylaminoethyl)piperazin-1-yl]-3-oxopropyl}pyridin-2-ylmethylsulfanyl)pyrimidin-4-yl]phenyl}acetamide hydrochloride]	3 nM	3%	22%	50%	–	–	–	–	–	–	ΔIOP (mmHg) [2, 3]: −0.8 ± 0.4 mmHg; ΔIOP (mmHg) [2, 4]: −5.1 ± 0.5 mmHg; ΔIOP (mmHg) [2, 5]: −5.3 ± 0.9 mmHg; ΔIOP (mmHg) [2, 6]: −4.0 ± 0.9 mmHg; ΔIOP (mmHg) [2, 7]: −4.3 ± 0.9 mmHg; ΔIOP (mmHg) [2, 8]: −1.3 ± 0.4 mmHg
CC(=O)Nc1ccc(-c2nc(SCc3cccc(CCC(=O)N4CCN(CCN(C(C)C)C(C)C)CC4)n3)nc(N)c2C#N)cc1.Cl [Example 76, N-{4-[6-amino-5-cyano-2-(6-{3-[4-(2-diisopropylaminoethyl)piperazin-1-yl]-3-oxopropyl}pyridin-2-ylmethylsulfanyl)pyrimidin-4-yl]phenyl}acetamide hydrochloride]	7.6 nM	0%	14%	46%	–	–	–	–	–	–	ΔIOP (mmHg) ([2]; 0.01% ophthalmic solution, rabbit, instillation, 0.5 hr after instillation, difference from pre-instillation): −3.7 ± 0.5 mmHg; ΔIOP (mmHg) ([2]; 0.01% ophthalmic solution, rabbit, instillation, 1 hr after instillation, difference from pre-instillation): −6.0 ± 0.8 mmHg; ΔIOP (mmHg) ([2]; 0.01% ophthalmic solution, rabbit, instillation, 2 hr after instillation, difference from pre-instillation): −5.7 ± 0.1 mmHg; ΔIOP (mmHg) ([2]; 0.01% ophthalmic solution, rabbit, instillation, 3 hr after instillation, difference from pre-instillation): −6.1 ± 0.3 mmHg; ΔIOP (mmHg) ([2]; 0.01% ophthalmic solution, rabbit, instillation, 4 hr after instillation, difference from pre-instillation): −5.2 ± 0.4 mmHg; ΔIOP (mmHg) ([2]; 0.01% ophthalmic solution, rabbit, instillation, 6 hr after instillation, difference from pre-instillation): −3.6 ± 0.7 mmHg
CC(=O)Nc1ccc(-c2nc(SCc3cccc(CCC(=O)N4CCN(CCN5CCCC5)CC4)n3)nc(N)c2C#N)cc1.Cl [Example 77, N-{4-[6-amino-5-cyano-2-(6-{3-oxo-3-[4-(2-pyrrolidin-1-ylethyl)piperazin-1-yl]propyl}pyridin-2-ylmethylsulfanyl)pyrimidin-4-yl]phenyl}acetamide hydrochloride]	9.5 nM	2%	18%	40%	−0.8 ± 0.5 mmHg	−5.0 ± 0.6 mmHg	−5.1 ± 0.4 mmHg	−4.4 ± 0.6 mmHg	−4.9 ± 0.7 mmHg	−3.1 ± 0.7 mmHg	–
CCN(CC)CCN1CCN(C(=O)CCc2cccc(CSc3nc(N)c(C#N)c(-c4ccc(NC(C)=O)cc4)n3)n2)CC1.Cl [Example 79, N-{4-[6-amino-5-cyano-2-(6-{3-[4-(2-diethylaminoethyl)piperazin-1-yl]-3-oxopropyl}pyridin-2-ylmethylsulfanyl)pyrimidin-4-yl]phenyl}acetamide hydrochloride]	8.4 nM	–	–	–	0.3 ± 0.9 mmHg	−3.9 ± 0.5 mmHg	−5.4 ± 0.7 mmHg	−5.8 ± 0.8 mmHg	−4.8 ± 0.7 mmHg	−2.8 ± 1.0 mmHg	A1 Agonistic Action (%) (A1 receptor; test compound 10 nM, hydrochloride): 0%; A1 Agonistic Action (%) (A1 receptor; test compound 100 nM, hydrochloride): 12%; A1 Agonistic Action (%) (A1 receptor; test compound 1 μM, hydrochloride): 45%
